Experimental data taken from paper PMC8080777, “Discovery, optimization, and evaluation of non-bile acid FXR/TGR5 dual agonists” (Scientific Reports, 2021).

Assays:
[1] = OGTT blood glucose; assay type: in vivo; conditions: single oral 100 mg/kg, overnight-fasted C57 mice, 2 g/kg glucose one hour later, blood 15 min after loading
Description: To measure blood glucose levels, 100 mg/kg of test compounds 20p and 20q or vehicle were administered orally to overnight-fasted C57 mice (n = 5 mice/group, control; n = 10). One hour later, all mice were challenged with 2 g/kg glucose, and blood samples were collected after 15 min of glucose loading. The blood glucose levels were measured using LabAssay Glucose (FUJIFILM Wako Pure Chemical Corporation, Osaka City, Osaka, Japan)[56].
Amersham Place Little Chalfont Buckinghamshire, HP7 9NA UK), and cDNA was synthesized using ReverTra Ace qPCR RT Master Mix (Toyobo Co., Ltd., Osaka City, Osaka, Japan). Real-time PCR was performed using a CFX96 Touch Real-Time PCR Analysis System (CFX Manager, Bio-Rad, 1000 Alfred Nobel Drive, Hercules, CA, USA), and the mRNA expression levels of SHP and CYP7A1, the target gene s of FXR, were measured using the intercalator […]
In vivo assay protocol (GLP-1)
Measurement of GLP-1 secretion: To measure plasma GLP-1 levels, 100 mg/kg of compounds 20p and 20q were administered orally to overnight -fasted C57 mice (n=5 animals/group). One hour later, all mice were challenged with 2 g/kg glucose, and blood samples were collected after 15 min of glucose challenge test. Plasma GLP-1 levels were measured using the GLP-1 ELISA Kit Wako, High Sensitive (FUJIFILM Wako Pure Chemical Corporation, Osaka city, Osaka, […]
In vivo assay protocol (OGTT test) […]

[2] = Pharmacokinetics in rats; assay type: in vivo, Sprague-Dawley rats; conditions: for Cmax / half-life / CLtot: n=3; for AUC: n=3, AUC0-24h; for Plasma exposure (in words): oral dose of 3 mg/kg; for CLtot: p.o.
Description: S3. Supplementary Table S1. Pharmacokinetic properties of 20p and 20q after oral administration […]
Determination of Drug Pharmacokinetics in Sprague-Dawley rats.
Blood samples (about 200 µl) were obtained from the jugular vein at 0.083 (intravenous only), 0.25, 0.5, 1, 2, 4, 8, and 24 hours from 16-hour fasted rats. Plasma was obtained from the blood samples by centrifugation at 3000 rpm for 10 minutes at 4 °C. Plasma were deproteinated and centrifuged at 3000 rpm for 10 minutes at 4 °C. Drug concentrations were measured using LC - MSMS (Triple Quad 4500; […]). Area under the plasma concentration -time curve at 0–24h (AUC0–24h) were calculated using the trapezoidal rule. pharmacokinetic parameters were calculated using the Phoenix WinNonlin 6.4 software (Certara […]

[3] = target: T1, GPR40 (Homo sapiens, UniProt O14842); test: Selectivity, cellular functional assay; assay type: cell-based
T1 construct: Eurofine Cerep / Eurofine Panlabs Discovery Services
Text: (§1) Compound 20p was screened against a broad panel of NRs and GPCRs to determine its agonist activity in vitro. […]
(§2) The selectivity tests of compound 20p were investigated by Eurofine Cerep (86600, Celle-Levescault, France) and Eurofine Panlabs Discovery Services (No. 25, Wugong, 6th Road, Wugu District, New Taipai City, Taiwan). Compound binding was caluculated as a % inhibition of the binding of radioactively labeled ligand specific for each target. Cellular agonist effect wa calculated as a % of control response to a known reference agonist for each target and cellular antagonist effect as caluculated as a % inhibition of control reference agonist response for each target at 30 µM of compound 20p.
(§3) 12.3%; CAR -2.5%, PPAR alpha 0.0%; PPAR delta -3.6%; PPAR gamma -1.0%; PXR 4.5%; ER alpha -16.6%; ER beta 17% at 30 µM.

[4] = target: T2, GPR120 (Homo sapiens, UniProt Q5NUL3); test: Selectivity, cellular functional assay; assay type: cell-based
T2 construct: Eurofine Cerep / Eurofine Panlabs Discovery Services
Text: as §1, §2, §3

[5] = target: T3, TGR5 (Homo sapiens, UniProt Q8TDU6); test: TGR5 cAMP assay in CHO cells transfected with TGR5 (cAMP Hunter eXpress, Discover X); assay type: cell-based; conditions: for TGR5 Efficacy (%) (1 µM) / TGR5 Efficacy (%) (10 µM): % vs INT-767 10 µM as 100%; for EC50: 4 parameter logistic fit
T3 construct: host or cells: CHO cells
T3 sequence (Q8TDU6 1-330): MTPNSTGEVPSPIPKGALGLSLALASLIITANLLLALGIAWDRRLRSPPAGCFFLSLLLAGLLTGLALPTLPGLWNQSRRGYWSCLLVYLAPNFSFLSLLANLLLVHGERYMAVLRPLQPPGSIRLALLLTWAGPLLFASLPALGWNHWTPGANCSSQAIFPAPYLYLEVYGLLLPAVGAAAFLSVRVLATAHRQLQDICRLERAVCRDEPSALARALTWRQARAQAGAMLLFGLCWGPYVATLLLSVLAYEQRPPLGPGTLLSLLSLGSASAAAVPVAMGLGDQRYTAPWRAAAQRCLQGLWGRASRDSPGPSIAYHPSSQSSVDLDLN

[6] = Sprague-Dawley, rat, plasma, po, 3mg/kg
[7] = Sprague-Dawley, rat, plasma, iv, 3mg/kg

T2 sequence (Q5NUL3 whole entry): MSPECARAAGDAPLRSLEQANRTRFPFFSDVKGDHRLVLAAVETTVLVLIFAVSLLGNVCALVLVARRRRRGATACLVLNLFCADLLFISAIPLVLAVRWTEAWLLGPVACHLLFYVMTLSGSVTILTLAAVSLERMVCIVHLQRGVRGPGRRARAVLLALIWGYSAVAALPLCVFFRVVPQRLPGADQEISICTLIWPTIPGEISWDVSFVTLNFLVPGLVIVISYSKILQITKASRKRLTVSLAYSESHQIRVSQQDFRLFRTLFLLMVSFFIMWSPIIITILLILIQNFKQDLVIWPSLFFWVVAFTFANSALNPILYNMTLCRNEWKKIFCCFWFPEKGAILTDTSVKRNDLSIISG
T1 sequence (O14842 whole entry): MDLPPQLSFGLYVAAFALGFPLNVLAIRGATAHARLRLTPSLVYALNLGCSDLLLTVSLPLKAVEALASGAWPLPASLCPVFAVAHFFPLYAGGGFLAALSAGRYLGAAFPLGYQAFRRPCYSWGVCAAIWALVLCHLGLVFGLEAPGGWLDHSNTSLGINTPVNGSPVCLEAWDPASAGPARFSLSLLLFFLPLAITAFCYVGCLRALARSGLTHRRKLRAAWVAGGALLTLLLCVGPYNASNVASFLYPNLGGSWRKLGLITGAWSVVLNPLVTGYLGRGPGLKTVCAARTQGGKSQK

| Cmax [2, 6] | half-life [2, 6] | AUC [2, 6] | Plasma exposure (in words) [2] | CLtot ([2]; 3mg/kg) | activity at 30 µM ([3]; 30 µM, read-out: GPR40 cellular agonist effect, % of control response to reference agonist) | EC50 ([3]; cellular functional assay) | activity at 30 µM ([4]; 30 µM, read-out: GPR120 cellular agonist effect, % of control response to reference agonist) | EC50 ([4]; cellular functional assay) | TGR5 agonist activity (in words) [5] | TGR5 Efficacy (%) (1 µM) [5] | TGR5 Efficacy (%) (10 µM) [5] | EC50 [5] | Cmax [2, 7] | half-life [2, 7] | AUC [2, 7] | clearance ([2]; Sprague-Dawley, rat, plasma, iv, 3mg/kg, n=3, read-out: CLtot (converted)) | SMILES | Blood glucose level on OGTT [1] |
| --- | --- | --- | --- | --- | --- | --- | --- | --- | --- | --- | --- | --- | --- | --- | --- | --- | --- | --- |
| 50.3 ng/mL | 87 min | 121 ng·h/mL | rather low plasma exposure | 426.93 mL/min/kg | 5.9% | > 30 µM | -5.2% | > 30 µM | strong dual agonist potencies | 51.1% | 62.4% | 420 nM |  |  |  |  | COc1cc(Cl)cc(N(CC23CCC(c4ccc(OC)c(C#N)c4)(CC2)CC3)C(=O)c2ccncc2C)c1 [Compound 20p] | robustly lowered the blood glucose level |
| 3.2 ng/mL | 271 min | 11 ng·h/mL | rather low plasma exposure | 2652.33 mL/min/kg |  |  |  |  | strong dual agonist potencies | 51.2% | 80.2% | 790 nM | 2580 ng/mL | 302 min | 1460 ng·h/mL | 34.2 mL/min/kg | COc1ccc(C23CCC(CN(C(=O)c4ccncc4C)c4cc(Cl)cc(Cl)c4)(CC2)CC3)cc1C#N [Compound 20q] | did not reduce the blood glucose level |
